Assay results reported in ChEMBL document CHEMBL3044829, “New carbodithioate derivatives: synthesis, characterization, and in vitro antibacterial, antifungal, antitubercular, and antimalarial activity” (Med Chem Res, 2013).
Values after ≈ are worked out from the molar mass of the structure shown.

What was measured:
[1] = tested on: Mycobacterium tuberculosis; assay: Antitubercular activity against Mycobacterium tuberculosis H37Rv MTCC 200 assessed as growth inhibition at 6.25 ug/ml by BACTEC MGIT method; assay type: functional
[2] = tested on: Mycobacterium tuberculosis; assay: Antitubercular activity against Mycobacterium tuberculosis H37Rv MTCC 200 assessed as growth inhibition by BACTEC MGIT method; assay type: functional
[3] = tested on: Aspergillus clavatus; assay: Antimicrobial activity against Aspergillus clavatus MTCC 1323 assessed as growth inhibition by broth microdilution method; assay type: functional
[4] = tested on: Aspergillus niger; assay: Antimicrobial activity against Aspergillus niger MTCC 282 assessed as growth inhibition by broth microdilution method; assay type: functional
[5] = tested on: Candida albicans; assay: Antimicrobial activity against Candida albicans MTCC 227 assessed as growth inhibition by broth microdilution method; assay type: functional
[6] = tested on: Bacillus subtilis; assay: Antimicrobial activity against Bacillus subtilis MTCC 441 assessed as growth inhibition by broth microdilution method; assay type: functional
[7] = tested on: Streptococcus pyogenes; assay: Antimicrobial activity against Streptococcus pyogenes MTCC 442 assessed as growth inhibition by broth microdilution method; assay type: functional
[8] = tested on: Staphylococcus aureus; assay: Antimicrobial activity against Staphylococcus aureus MTCC 96 assessed as growth inhibition by broth microdilution method; assay type: functional
[9] = tested on: Klebsiella pneumoniae; assay: Antimicrobial activity against Klebsiella pneumoniae MTCC 109 assessed as growth inhibition by broth microdilution method; assay type: functional
[10] = tested on: Pseudomonas aeruginosa; assay: Antimicrobial activity against Pseudomonas aeruginosa MTCC 1688 assessed as growth inhibition by broth microdilution method; assay type: functional
[11] = tested on: Escherichia coli; assay: Antimicrobial activity against Escherichia coli MTCC 443 assessed as growth inhibition by broth microdilution method; assay type: functional
[12] = tested on: Plasmodium falciparum; assay: Antimalarial activity against chloroquine-sensitive Plasmodium falciparum 3D7 assessed as inhibition of complete maturation into schizonts after 40 hr; assay type: functional; details: 3D7, 40 h
[13] = tested on: Vero; assay: Cytotoxicity against Chlorocebus aethiops (African green monkey) Vero cells assessed as inhibition of cell viability at equal to and greater than MIC for Mycobacterium tuberculosis H37Rv after 72 hr by MTT assay; assay type: cell-based; details: chlorocebus sabaeus
[14] = tested on: Mycobacterium tuberculosis; assay: Antitubercular activity against Mycobacterium tuberculosis H37Rv MTCC 200 assessed as growth inhibition at MIC by L.J. MIC method; assay type: functional
[15] = tested on: Mycobacterium tuberculosis; assay: Antitubercular activity against Mycobacterium tuberculosis H37Rv MTCC 200 assessed as growth inhibition by L.J. MIC method; assay type: functional

**Q.** `O=C1C(=O)N(CCSC(=S)N2CCN(c3ccc(Cl)c(Cl)c3)CC2)c2ccc(Cl)cc21` was tested. Which inhibition at 6.25 µg/mL [1] did it give?
**A.** Its inhibition at 6.25 µg/mL is 98%.

**Q.** What about the MIC [2] of the same compound?
**A.** Its MIC is over 6.25 µg/mL.

**Q.** And the MIC99 [3]?
**A.** Its MIC99 is 500 µg/mL.

**Q.** And the MIC99 [4]?
**A.** Its MIC99 is over 1000 µg/mL.

**Q.** What about the MIC99 [5] of the same compound?
**A.** The MIC99 was over 1000 µg/mL.

**Q.** What about the MIC99 [6] of the same compound?
**A.** The MIC99 was 100 µg/mL.

**Q.** And the MIC99 [7]?
**A.** The MIC99 was 250 µg/mL.

**Q.** And the MIC99 [8]?
**A.** Its MIC99 is 500 µg/mL.

**Q.** What about the MIC99 [9] of the same compound?
**A.** Its MIC99 is 250 µg/mL.

**Q.** What about the MIC99 [10] of the same compound?
**A.** Its MIC99 is 250 µg/mL.

**Q.** And the MIC99 [11]?
**A.** The MIC99 was 500 µg/mL.

**Q.** What about the MIC [12] of the same compound?
**A.** Its MIC is 0.061 µg/mL (≈ 0.118 µM).

**Q.** And the Activity [13]?
**A.** Its Activity is “Non-toxic”.

**Q.** What about the “inhibition (Growth inhibition)” value [14] of the same compound?
**A.** Its value is 96%.

**Q.** What about the MIC [15] of the same compound?
**A.** Its MIC is 100 µg/mL (≈ 194 µM).

**Q.** `NC(=O)c1cnccn1` [PYRAZINAMIDE] was tested. Which inhibition at 6.25 µg/mL [1] did it give?
**A.** Its inhibition at 6.25 µg/mL is 99%.

**Q.** And the MIC [2]?
**A.** Its MIC is 6.25 µg/mL (≈ 50.8 µM).

**Q.** How did the inhibition at 6.25 µg/mL [1] turn out when `O=C1C(=O)N(CCCSC(=S)N2CCN(c3ccc(Cl)c(Cl)c3)CC2)c2ccc(F)cc21` was run?
**A.** Its inhibition at 6.25 µg/mL is 99%.

**Q.** What about the MIC [2] of the same compound?
**A.** Its MIC is 6.25 µg/mL (≈ 12.2 µM).

**Q.** And the MIC99 [3]?
**A.** Its MIC99 is 250 µg/mL.

**Q.** And the MIC99 [4]?
**A.** The MIC99 was 200 µg/mL.

**Q.** What about the MIC99 [5] of the same compound?
**A.** Its MIC99 is 500 µg/mL.

**Q.** What about the MIC99 [6] of the same compound?
**A.** The MIC99 was 500 µg/mL.

**Q.** And the MIC99 [7]?
**A.** The MIC99 was 250 µg/mL.

**Q.** What about the MIC99 [8] of the same compound?
**A.** Its MIC99 is 500 µg/mL.

**Q.** And the MIC99 [9]?
**A.** Its MIC99 is 100 µg/mL.

**Q.** And the MIC99 [10]?
**A.** The MIC99 was 250 µg/mL.

**Q.** What about the MIC99 [11] of the same compound?
**A.** The MIC99 was 250 µg/mL.

**Q.** And the MIC [12]?
**A.** Its MIC is 0.092 µg/mL (≈ 0.18 µM).

**Q.** What about the Activity [13] of the same compound?
**A.** The Activity was “Non-toxic”.

**Q.** What about the “inhibition (Growth inhibition)” value [14] of the same compound?
**A.** The value was 98%.

**Q.** What about the MIC [15] of the same compound?
**A.** The MIC was 6.25 µg/mL (≈ 12.2 µM).

**Q.** What does the source list for NYSTATIN?
**A.** MIC99 [3]: 100 µg/mL; MIC99 [4]: 100 µg/mL; MIC99 [5]: 100 µg/mL

**Q.** For `CC1(C)S[C@@H]2[C@H](NC(=O)[C@H](N)c3ccccc3)C(=O)N2[C@H]1C(=O)O` [AMPICILLIN], which MIC99 [6] is on record?
**A.** Its MIC99 is 100 µg/mL.

**Q.** What about the MIC99 [7] of the same compound?
**A.** The MIC99 was 100 µg/mL.

**Q.** And the MIC99 [8]?
**A.** Its MIC99 is 250 µg/mL.

**Q.** What about the MIC99 [9] of the same compound?
**A.** Its MIC99 is 100 µg/mL.

**Q.** And the MIC99 [10]?
**A.** Its MIC99 is 100 µg/mL.

**Q.** What about the MIC99 [11] of the same compound?
**A.** The MIC99 was 100 µg/mL.

**Q.** What does the source list for `O=C1C(=O)N(CCCSC(=S)N2CCN(c3ccc(Cl)c(Cl)c3)CC2)c2ccc([N+](=O)[O-])cc21`?
**A.** inhibition at 6.25 µg/mL [1]: 99%; MIC [2]: 6.25 µg/mL (≈ 11.6 µM); MIC99 [3]: 200 µg/mL; MIC99 [4]: 250 µg/mL; MIC99 [5]: 500 µg/mL; MIC99 [6]: 250 µg/mL; MIC99 [7]: 250 µg/mL; MIC99 [8]: 500 µg/mL; MIC99 [9]: 100 µg/mL; MIC99 [10]: 200 µg/mL; MIC99 [11]: 100 µg/mL; MIC [12]: 0.5 µg/mL (≈ 0.927 µM); Activity [13]: Non-toxic; inhibition (Growth inhibition) [14]: 96%; MIC [15]: 100 µg/mL (≈ 185 µM)

**Q.** What does the source list for `COC1=CC(=O)C[C@@H](C)[C@]12Oc1c(Cl)c(OC)cc(OC)c1C2=O` [GRISEOFULVIN]?
**A.** MIC99 [3]: 100 µg/mL; MIC99 [4]: 100 µg/mL; MIC99 [5]: 500 µg/mL

**Q.** Which results are given for `CCn1cc(C(=O)O)c(=O)c2cc(F)c(N3CCNCC3)cc21` [NORFLOXACIN]?
**A.** MIC99 [6]: ≤ 10 µg/mL; MIC99 [7]: ≤ 10 µg/mL; MIC99 [8]: ≤ 10 µg/mL; MIC99 [9]: ≤ 10 µg/mL; MIC99 [10]: ≤ 10 µg/mL; MIC99 [11]: ≤ 10 µg/mL

**Q.** For `CC[C@@H](CO)NCCN[C@@H](CC)CO` [ETHAMBUTOL], which inhibition at 6.25 µg/mL [1] is on record?
**A.** Its inhibition at 6.25 µg/mL is 99%.

**Q.** What about the MIC [2] of the same compound?
**A.** Its MIC is 3.12 µg/mL (≈ 15.3 µM).

**Q.** Which MIC [12] does the source give for `CCN(CC)CCCC(C)Nc1ccnc2cc(Cl)ccc12` (stereo not drawn) [CHLOROQUINE] here?
**A.** The MIC was 0.125 µg/mL (≈ 0.391 µM).

**Q.** `O=C1C(=O)N(CCSC(=S)N2CCN(c3ccc(Cl)c(Cl)c3)CC2)c2ccc(Br)cc21` was tested. Which inhibition at 6.25 µg/mL [1] did it give?
**A.** Its inhibition at 6.25 µg/mL is 99%.

**Q.** What about the MIC [2] of the same compound?
**A.** Its MIC is 6.25 µg/mL (≈ 11.2 µM).

**Q.** What about the MIC99 [3] of the same compound?
**A.** Its MIC99 is 500 µg/mL.

**Q.** And the MIC99 [4]?
**A.** The MIC99 was 200 µg/mL.

**Q.** What about the MIC99 [5] of the same compound?
**A.** Its MIC99 is 200 µg/mL.

**Q.** And the MIC99 [6]?
**A.** Its MIC99 is 250 µg/mL.

**Q.** What about the MIC99 [7] of the same compound?
**A.** The MIC99 was 62.5 µg/mL.

**Q.** And the MIC99 [8]?
**A.** The MIC99 was 250 µg/mL.

**Q.** What about the MIC99 [9] of the same compound?
**A.** The MIC99 was 250 µg/mL.

**Q.** What about the MIC99 [10] of the same compound?
**A.** The MIC99 was 62.5 µg/mL.

**Q.** And the MIC99 [11]?
**A.** The MIC99 was 100 µg/mL.

**Q.** What about the MIC [12] of the same compound?
**A.** Its MIC is 0.052 µg/mL (≈ 0.093 µM).

**Q.** What about the Activity [13] of the same compound?
**A.** Its Activity is “Non-toxic”.

**Q.** And the “inhibition (Growth inhibition)” value [14]?
**A.** The value was 99%.

**Q.** And the MIC [15]?
**A.** Its MIC is 6.15 µg/mL (≈ 11 µM).
